This assay deals with Mycobacterium tuberculosis H37Rv (ATCC: 25177). Briefly: Resazurin Microplate Assay (REMA), anti-tubercular activity, H37Rv strain. The conditions noted are these: 192 h, read-out: Anti-tubercular activity against Mycobacterium tuberculosis (MIC), H37Rv. The assay is classed as cell-based. For orientation: The colour change of resazurin is a common sign of viable cells or microbes.

The MIC is the lowest concentration that inhibits growth of the organism.

Turning to `Cc1cc[n+](CC(=O)c2ccc(F)cc2)cc1.[Br-]` [Compound 3d, 1-(2-(4-Fluorophenyl)-2-oxoethyl)-4-methylpyridin-1-ium bromide], the MIC came out at 8 µg/mL.

The record behind these values is patent US12227480B1 (priority 2023, dated 2025).
